From patent publication US20130064870A1, “DRY POWDER INHALATION COMPOSITION” (SUN PHARMA ADVANCED RESEARCH COMPANY LIMITED, priority 2010, published 2013)
“And” between values parts separate entries of the source, which are not always exact repeats. Equal values may be shown once.

Key:
Assay type in all cases: physicochemical
[1] = Polymorphic purity by differential scanning calorimetry (DSC)
Experimental: The phrase ‘substantially free of polymorph II’ means the micronized salmeterol xinafoate having not more than 5%, preferably not more than 3%, most preferably not more than 1% of polymorph II. The polymorphic purity of the salmeterol xinafoate can be determined by any known analytical method. According to the present invention, the polymorphic purity is determined by differential scanning calorimeter (DSC). The melting points of polymorph I and polymorph II are distinct and this method can determine the presence of two.
In one embodiment, the salmeterol xinafoate was obtained by micronizing salmeterol xinafoate by milling in a jet mill with grinding parameters are as follows: grinding pressure: 1-5 bars, feed pressure: 2-10 bars, feed rate of 0.1-10 g/min, followed by subjecting the micronized material to a temperature of about 50° C. to 90° C., wherein the conditioning cycle is carried out for a time period o about 1 hour to 120 hours, preferably, 1 to 50 hours, most preferably, 20 hrs to 40 hrs. The polymorphic purity of the resultant salmeterol xinafoate so obtained was determined by recording the differential scanning calorimetry (See FIGS. 3-5).
The results of the polymorphic purity were determined by differential scanning calorimeter and are tabulated below

[2] = Mean particle size (D50) by laser light diffraction
Experimental: The term ‘mean particle size’ as used herein means the particle size distribution of 50% of the population of the particles is less than the specified value. The particle size was measured using laser light diffraction method of particle size analysis.

Tapped density = assay: Tapped density
Description: The term ‘tapped density’ as used herein means that density attained after mechanically tapping a receptacle containing the powder sample.

[3] = In vitro cascade impactor test (fine particle fraction/dose, MMAD, GSD, deposition), USP <601>; details: applicant's patented device
Description: A cascade impactor is a multi-stage sampling device for determining the size distribution of a particulate aerosol. The aerosol flows into the impactor whereupon it impinges upon a sequence of solids discs. Each disc (which represents a ‘stage’) is contained within a flow chamber and each chamber is connected in a vertical arrangement to the previous and next chamber in the sequence. Larger particles impact on the first disc and are captured. The sampling velocity increases for each successive chamber/disc so that successively smaller particles are collected. The final stage is typically a fine filter septum. Up to 10 stages are often used which divides the size distribution into an equivalent number of portions. The present invention may use eight Stage Sampler which meets the guidelines of the various world pharmacopoeias (e.g., United States Pharmacopoeia Chapter 601 “USP <601>”) to characterize metered-dose (MDI) and dry powder-dose inhalers (DPI), nebulizers, nasal sprays and other pulmonary drugs or a Next generation impactor (NGI) by Anderson. The testing of inhalation drugs goes hand and hand with cascade impactors, the size ranges collected are considered inhalable (generally <10 μm), just as the inhalation drugs should consistently arrive within the respiratory system into their target regions, the various stages represent the cut-off sizes when deposition may occur within the lungs.
In order to evaluate the effect of the dry powder inhalation composition itself, the composition was delivered via two different inhalation devices namely, a marketed inhalation device, namely, such as for example Rotahaler® and the applicant's own patented device. The % fine particle fraction and mass mean aerodynamic diameter was determined by testing in vitro in cascade impactor. The therapeutic efficacy of the composition of the present invention in terms of fine particle fraction was determined by a cascade impaction method official in the United States Pharmacopoeia, chapter <601>.
The conditioned micronized salmeterol xinafoate having mean particle size of […] and a tapped density in the range of 0.20 g·cm^−3 to 0.45 g·cm^−3 was tested for fine particle fraction, mass mean aerodynamic diameter in a cascade impactor. The composition was delivered using the applicant's patented device as described in the description. The results of the in-vitro testing are provided below in Table 2:
The composition of dry powder inhalation was subjected to fine particle dose determination. This was determined according to the procedure given in USP chapter <601>. The fine particle fraction was measured in terms of deposition at various stages as per the pharmacopoeial method. […]

[4] = Polymorphic purity by differential scanning calorimetry (DSC); details: micronized, conditioned 80 hr at 40° C., 80 bar, CO2
[5] = micronized, before conditioning at 40° C./80 bar CO2
[6] = micronized, conditioned 40 hr at 85° C., air, no pressure
[7] = micronized, not conditioned (FIG. 3)
[8] = un-micronized salmeterol xinafoate (FIG. 2)
[9] = batch D50 4.02, tapped density 0.25
[10] = batch D50 5.99, tapped density 0.43

- % polymorph I [1, 5]: 44.18%
- % polymorph II [1, 5]: 34.34%
- % Salmeterol xinafoate Polymorph form I ([1]; micronized, conditioned 24 hr at 85° C., air, no pressure): 92.78%
- % Salmeterol xinafoate Polymorph form I [1, 6]: 96.40%
- % Salmeterol xinafoate Polymorph form II [1, 6]: 3.66% and 3.60%
- % polymorph I [1, 7]: 69.20%
- % polymorph II [1, 7]: 30.80%
- % polymorph form I [1, 8]: 88.8%
- % polymorph form II [1, 8]: 11.20%
- Mean particle size D50 ([2]; conditioned micronized batch with tapped density 0.25): about 4.02 μms
- Mean particle size D50 ([2]; conditioned micronized batch with tapped density 0.25, listed as salmeterol xinofoate): 4.02 μms
- Mean particle size D50 ([2]; conditioned micronized batch with tapped density 0.43): about 6 μms
- Mean particle size D50 ([2]; conditioned micronized batch with tapped density 0.43, listed as salmeterol xinofoate): 5.99 μms
- Tapped density (Tapped density; conditioned micronized batch with D50 4.02): 0.25 g/mL
- Tapped density (Tapped density; conditioned micronized batch with D50 5.99): 0.43 g/mL
- % FPF Mean [3, 9]: 41.115%
- GSD Mean [3, 9]: 1.747
- % FPF Mean [3, 10]: 20.91%
- GSD Mean [3, 10]: 1.734
- % Salmeterol xinafoate Polymorph form I [4]: 85.95%
- % Salmeterol xinafoate Polymorph form II [4]: 9.09%
SMILES: OCc1cc(C(O)CNCCCCCCOCCCCc2ccccc2)ccc1O (stereo not drawn) [salmeterol xinafoate]
